Like-named read-outs stand apart in the source and are kept apart here.
Key:
[1] = n-Octanol-PBS distribution coefficient, log D7.4; assay type: physicochemical; details: 177Lu-labeled ligand; n-octanol/PBS pH 7.4
Method: Approximately 1 MBq of the labeled tracer was dissolved in 1 mL of a 1:1 mixture (v/v) of phosphate buffered saline (PBS, pH=7.4) and n-octanol in an Eppendorf tube. After vigorous mixing of the suspension for 3 min at room temperature, the vial was centrifuged at 9000 rpm for 5 min (Biofuge 15, Heraus Sepatech, Osterode, Germany) and 200 μL aliquots of both layers were measured in a γ-counter. The experiment was repeated at least four times.

[2] = test system: PC-3 tumor-bearing CB17-SCID mice; details: mouse, in vivo
Method: (§1) All animal experiments were conducted in accordance with general animal welfare regulations in Germany (German animal protection act, as amended on 18 May 2018, Art. 141 G v. 29.3.2017 | 626, approval no. ROB-55.2-2532.Vet_02-18-109) and the institutional guidelines for the care and use of animals. To establish tumor xenografts, PC-3 cells (5×10^6 cells per 200 μL) were suspended in a 1:1 mixture (v/v) of Dulbecco's modified eagle's medium/Ham's F-12 (DMEM/F-12) with Glutamax-I (1:1) and Cultrex® Basement Membrane Matrix Type 3 (Trevigen Inc., Gaithersburg, MD, USA) and inoculated subcutaneously onto the right shoulder of 6-10 weeks old female CB17-SCID mice (Charles River Laboratories International Inc., Sulzfeld, Germany). Mice were used for experiments when tumor volume was 125-500 mm^3 (2-3 weeks after inoculation).
Imaging studies were performed at a MILabs VECTor^4 small-animal SPECT/PET/OI/CT device (MILabs, Utrecht, the Netherlands). Data were reconstructed using the MILabs Rec software (version 10.02) and a pixel-based Similarity-Regulated Ordered Subsets Expectation Maximization (SROSEM) algorithm, followed by data analysis using the PMOD4.0 software (PMOD TECHNOLOGIES LLC, Zurich, Switzerland). […] Static images were recorded within 1 and 28 h p.i. with an acquisition time of 45-60 min using the HE-GP-RM collimator and a step-wise multi-planar bed movement.

[3] = Plasma studies: metabolic stability in vitro in human plasma (radio RP-HPLC); assay type: in vitro ADME
Outline: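 Radiotracer incubated in human or murine plasma at 37° C. immediately after labeling, for 72±2 h or 6±0.5 h. Proteins precipitated with ice-cold EtOH and MeCN and centrifuged. Supernatant analysed by radio RP-HPLC.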

GRPR = target: T1, GRPR (Homo sapiens, UniProt P30550); assay: Determination of GRPR affinity (IC50), competition with [D-3-[125I]I-Tyr6]MJ9 on PC-3 cells; assay type: binding
T1 construct: endogenous in cells; host or cells: PC-3 cells

[4] = test system: PC-3 tumor-bearing CB17-SCID mice; assay: Biodistribution in PC-3 tumor-bearing CB17-SCID mice; assay type: in vivo; details: 177Lu-labeled, 24 h p.i.
Method: as §1
Approximately 1-5 MBq ([…]) of the radiolabeled GRPR antagonists were injected into the tail vein of PC-3 tumor-bearing mice and sacrificed at 1, 4 or 24 h p.i. (n=4). Selected organs were removed, weighted and measured in a γ-counter (Perkin Elmer, Waltham, MA, USA).

PC-3 cells = assay: Internalization into PC-3 cells; assay type: cell-based; details: c = 1 nM, 1 h, 37° C., corrected for non-specific binding (10^-3 M [natLu]RM2)
Method: For internalization studies, PC-3 cells are harvested 24±2 h before the experiment and seeded in 24-well plates (1.5×10^5 cells/well, 1 mL). Subsequent to the removal of the culture medium, the cells are washed once with 500 μL DMEM/F-12 (5% BSA) and left to equilibrate at 37° C. for at least 15 min in 200 μL DMEM/F-12 (5% BSA). […] Next, 25 μL of the ^125I/^177Lu-labeled GRPR ligand (10 nm) is added and the cells are incubated at 37° C. for 60 min.
The experiment is terminated by placing the 24-well plate on ice for 1 min and consecutive removal of the medium. Each well is rinsed with 300 μL ice-cold PBS and the fractions from these first two steps are combined, representing the amount of free radiolabeled reference. Removal of surface bound activity is accomplished by incubation of the cells with 300 μL of ice-cold Acid Wash solution (0.02 M NaOAc, pH=5.0) for 10 min at room temperature and rinsed again with 300 μL of ice-cold PBS. The internalized activity is determined by incubation of the cells in […] NaOH (1 M) and the combination with the fraction of a subsequent washing step with 300 μL NaOH (1 M).
Each experiment (control and blockade) is performed sixfold. Free, surface bound and internalized activity is quantified in a γ-counter. Data is corrected for non-specific internalization.

T1 sequence (P30550 whole entry): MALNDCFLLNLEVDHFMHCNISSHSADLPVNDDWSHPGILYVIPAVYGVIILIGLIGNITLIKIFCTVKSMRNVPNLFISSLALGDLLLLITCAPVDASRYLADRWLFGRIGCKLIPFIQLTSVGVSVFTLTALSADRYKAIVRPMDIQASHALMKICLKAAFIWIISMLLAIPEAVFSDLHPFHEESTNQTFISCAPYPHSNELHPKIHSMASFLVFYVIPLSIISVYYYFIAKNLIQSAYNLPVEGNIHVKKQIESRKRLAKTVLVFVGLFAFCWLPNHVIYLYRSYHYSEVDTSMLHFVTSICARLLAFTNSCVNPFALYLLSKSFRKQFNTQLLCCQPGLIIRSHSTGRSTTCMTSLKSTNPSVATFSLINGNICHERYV

Row | Structure (SMILES) | log D7.4 ± SD (n = 8) [1] | clearance of background activity in imaging [2] | Amount of intact tracer after incubation in human plasma for 72 ± 2 h (n = 2) [3] | metabolite, first-eluting peak in chromatogram [3] [%] | metabolite, second peak in chromatogram [3] [%] | remaining intact tracer in chromatogram ([3]; human, plasma, 2 h) [%] | IC50 (GRPR; IC50 [nM] ± SD (n = 3), ^177Lu-labeled, Table 1C, GRPR affinity) [nM] | IC50 (GRPR; IC50 ± SD (n = 3), Table 3, [D-3-[125I]I-Tyr6]MJ9 (c = 0.2 nM), 2 h, r.t., HBSS + 1% BSA) [nM] | pancreas retention ([4]; 100 pmol, FIG. 11) | tumor retention ([4]; 100 pmol, FIGS. 11, 18) | tumor-to-background ratios (tumor-to-blood, tumor-to-muscle) ([4]; FIG. 12) | Specific internalization (mean ± SD, n = 6) (PC-3 cells) | Amount of intact tracer after incubation in human plasma for 72 ± 2 h (n = 2) ([3]; Table 1C, 177Lu-labeled, 37° C., 72 ± 2 h, in % (unit assumed)) | amount of intact tracer (in vitro stability), mean ± SD ([3]; human plasma, 37° C., 72±2 h) [%]
1 | CC(C)C[C@H](NC(=O)C[C@H](O)[C@H](CC(C)C)NC(=O)[C@H](Cc1c[nH]cn1)NC(=O)CNC(=O)[C@@H](NC(=O)[C@H](C)NC(=O)[C@](C)(Cc1c[nH]c2ccccc12)NC(=O)[C@H](CCC(N)=O)NC(=O)[C@@H](Cc1ccccc1)NC(=O)CN1CCC(NC(=O)CN2CCN(CC(=O)O)CCN(CC(=O)O)CCN(CC(=O)O)CC2)CC1)C(C)C)C(N)=O [AMTG] | −2.28 ± 0.06 | cleared less rapid | 77.6 ± 10.1 | 2 | 5 | 92 |  |  |  |  |  |  |  | 
2 | CC(C)CC(CC(C)C)NC(=O)[C@H](Cc1cnc[nH]1)NC(=O)CNC(=O)[C@@H](NC(=O)[C@H](C)NC(=O)[C@H](Cc1c[nH]c2ccccc12)NC(=O)[C@H](CCC(N)=O)NC(=O)[C@@H](Cc1ccccc1)NC(=O)COCC(=O)Nc1ccc(CNC(=O)CN2CCN(CC(=O)O)CCN(CC(=O)O)CCN(CC(=O)O)CC2)cc1)C(C)C [NeoBOMB1, reference compound] | −0.57 ± 0.03 |  |  |  |  |  | 4.2 ± 0.1 | 4.22 ± 0.14 | high pancreas retention | high tumor retention | minor tumor-to-background ratios than the reference | 13.91 ± 0.64 % of the used activity | 60.8 ± 1.2 | 60.8±1.2

From US20250339567A1, “COMPOUNDS WITH IMPROVED PHARMACOKINETICS FOR IMAGING AND THERAPY OF CANCER” (priority 2019, published 2025)
